pIC50, pKi: −log10 of the molar value. Like-named read-outs stand apart in the source and are kept apart here.

For assay [1], the target named is T1, recombinant human catalytic domain of MMP-14 (Homo sapiens, UniProt P50281).
T1 construct: 177 amino acids corresponding to Tyr89-Gly265 of mature human enzyme; purchased Chemicon International, Inc. CC1041
Kind of assay: In vitro fluorescence assay of MMP-14 activity. Type of assay: biochemical. Conditions: Table 1; unit inferred.

The target of the next assay is T2, recombinant human MMP-2 (Homo sapiens, UniProt P08253).
T2 sequence (P08253 110-660): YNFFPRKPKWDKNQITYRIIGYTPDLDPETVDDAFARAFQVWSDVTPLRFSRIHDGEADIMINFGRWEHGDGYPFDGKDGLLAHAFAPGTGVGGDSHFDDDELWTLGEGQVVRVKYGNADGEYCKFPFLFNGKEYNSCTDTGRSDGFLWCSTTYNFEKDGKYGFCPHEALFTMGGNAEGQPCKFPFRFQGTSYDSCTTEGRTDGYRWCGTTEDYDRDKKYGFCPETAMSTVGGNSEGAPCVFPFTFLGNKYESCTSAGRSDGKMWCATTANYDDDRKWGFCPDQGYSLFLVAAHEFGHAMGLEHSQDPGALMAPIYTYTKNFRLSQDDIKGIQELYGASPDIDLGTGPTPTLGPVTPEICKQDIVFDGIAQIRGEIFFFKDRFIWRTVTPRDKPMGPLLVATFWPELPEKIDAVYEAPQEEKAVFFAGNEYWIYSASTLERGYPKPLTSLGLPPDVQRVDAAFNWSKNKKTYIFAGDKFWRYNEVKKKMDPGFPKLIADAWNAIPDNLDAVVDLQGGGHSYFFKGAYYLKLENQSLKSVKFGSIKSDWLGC
The experiment in a line: In vitro fluorescence assay of MMP-2 activity.

Assay [2] deals with T3, purified recombinant human Aggrecanase-1 (rAgg1) (Homo sapiens, UniProt O75173).
T3 sequence (O75173 213-837): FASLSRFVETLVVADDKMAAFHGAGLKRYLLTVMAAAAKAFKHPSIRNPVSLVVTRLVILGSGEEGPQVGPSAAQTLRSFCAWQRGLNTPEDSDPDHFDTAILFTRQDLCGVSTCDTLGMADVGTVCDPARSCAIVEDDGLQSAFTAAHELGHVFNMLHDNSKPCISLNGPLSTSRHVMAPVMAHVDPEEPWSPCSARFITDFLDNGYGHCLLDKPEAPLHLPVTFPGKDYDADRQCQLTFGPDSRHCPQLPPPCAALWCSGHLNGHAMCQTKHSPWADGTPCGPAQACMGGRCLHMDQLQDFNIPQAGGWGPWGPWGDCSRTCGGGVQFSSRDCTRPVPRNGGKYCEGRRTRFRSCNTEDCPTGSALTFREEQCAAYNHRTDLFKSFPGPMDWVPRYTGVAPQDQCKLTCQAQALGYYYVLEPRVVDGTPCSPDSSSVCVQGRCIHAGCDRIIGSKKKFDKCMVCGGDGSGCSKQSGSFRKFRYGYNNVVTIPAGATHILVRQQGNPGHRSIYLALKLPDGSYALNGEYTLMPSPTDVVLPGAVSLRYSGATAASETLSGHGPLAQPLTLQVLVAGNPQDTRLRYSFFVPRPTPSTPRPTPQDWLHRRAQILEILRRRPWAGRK
The experiment in a line: In vitro fluorescence screen for Aggrecanase-1 inhibitors. Type of assay: biochemical. Conditions: Table 1; for pIC50: read-out: Agg1 IC50; for pKi: enzyme not given, column follows Agg1 IC50, read-out: Ki.

Another assay deals with T4, MMP-1 (Homo sapiens, UniProt P03956).
T4 sequence (P03956 100-469): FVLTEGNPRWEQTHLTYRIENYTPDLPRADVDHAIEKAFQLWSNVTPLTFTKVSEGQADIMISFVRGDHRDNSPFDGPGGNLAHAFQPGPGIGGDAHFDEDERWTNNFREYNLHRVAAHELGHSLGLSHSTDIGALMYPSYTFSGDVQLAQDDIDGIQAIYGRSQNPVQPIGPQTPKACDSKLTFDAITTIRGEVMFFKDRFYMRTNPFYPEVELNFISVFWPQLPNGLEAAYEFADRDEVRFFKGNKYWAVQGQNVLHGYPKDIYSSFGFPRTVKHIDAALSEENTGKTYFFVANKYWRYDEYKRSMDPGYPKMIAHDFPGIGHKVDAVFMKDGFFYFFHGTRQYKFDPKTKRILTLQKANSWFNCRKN
Kind of assay: MMP-1 of Table 1. Type of assay: biochemical. Conditions: for MMP-1: unit not given; for pIC50: unit inferred.

The target of assay [3] is T5, purified recombinant human Aggrecanase-2 (Ag2t-Phe628-Strep) (Homo sapiens, UniProt Q9UNA0).
T5 construct: the form used is denoted as Ag2t-Phe628-Strep (MW=41,737)
T5 sequence (Q9UNA0 262-628): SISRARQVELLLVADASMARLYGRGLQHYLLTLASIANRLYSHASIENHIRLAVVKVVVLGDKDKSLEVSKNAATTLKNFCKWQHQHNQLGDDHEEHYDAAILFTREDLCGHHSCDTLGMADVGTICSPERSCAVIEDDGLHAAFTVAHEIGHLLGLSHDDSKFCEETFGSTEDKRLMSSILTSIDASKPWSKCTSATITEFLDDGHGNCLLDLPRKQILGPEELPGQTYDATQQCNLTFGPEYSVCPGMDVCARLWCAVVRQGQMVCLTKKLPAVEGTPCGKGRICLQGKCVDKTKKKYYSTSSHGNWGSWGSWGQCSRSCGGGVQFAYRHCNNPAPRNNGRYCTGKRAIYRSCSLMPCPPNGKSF
The experiment in a line: In vitro fluorescence screen for Aggrecanase-2 inhibitors. Type of assay: biochemical. Conditions: Table 1; read-out: Agg 2 IC50.

In assay [4] the target is T6, recombinant human catalytic domain of MMP-13 (Homo sapiens, UniProt P45452).
T6 construct: catalytic domain of MMP-13 (165 amino acids, residues 104-268, 19 kDa)
Kind of assay: In vitro fluorescence assay of MMP-13 activity. The class given is biochemical. Conditions: Table 1; unit inferred.

Method for recombinant human MMP-2: A continuous assay was used in which the substrate is a synthetic peptide containing a fluorescent group (7-methoxycoumarin; Mca), which is quenched by energy transfer to a 2,4-dinitrophenyl group. […] The source of enzyme in the assay was the recombinant human MMP-2 (66 kDa; Oncogene Research Products (catalog number PF023 from Calbiochem)). The substrate used was the peptide Mca-PQGL-(3-[2,4-dinitrophenyl]-L-2,3-diaminopropionyl)-AR-OH. The assay buffer consisted of 50 mM Hepes (pH 7.4), 100 mM NaCl, 5 mM CaCl2, and 0.005% Brij-35. […] The plates were then incubated at 30° C. for 15 minutes. The enzymatic reactions were initiated by adding the substrate to a final concentration of 20 μM, and mixing 10 times with a pipette. The final DMSO concentration in the assay was 6.0%.
Plots of the inhibitor concentration vs. the percent inhibition were fit to the following equation: y=(a−d)/[^1+(x/c)^b]+d, a general sigmoidal curve with Hill slope, a to d. x is the inhibitor concentration under test. y is the percent inhibition. a is the limiting response as x approaches zero. As x increases without bound, y tends toward its limit d. c is the inflection point (IC50) for the curve. That is, y is halfway between the lower and upper asymptotes when x=c. b is the slope factor or Hill coefficient.

As for `O=C(O)CC[C@H](NC(=O)c1ccc(-c2ccccc2)cc1)C(=O)NCCc1ccc(F)cc1` [Example 8SS, N^2-(biphenyl-4-ylcarbonyl)-N^1-[2-(4-fluorophenyl)ethyl]-L-α-glutamine], the pIC50 is less than 4.18 in assay [1]; 4.91 at recombinant human MMP-2; 7.00 in assay [2]; 6.10 in assay [3]; approximately 4.30 in assay [4]. In addition, the MMP-1 result on MMP-1 is reported as “no inh”.

On to `CC(C)(C)CNC(=O)[C@H](CCC(=O)O)NC(=O)c1ccc(-c2ccccc2)cc1` [Example 8UUU, N^2-(biphenyl-4-ylcarbonyl)-N^1-(2,2-dimethylpropyl)-L-α-glutamine], for which the pIC50 in assay [1] was less than 3.70; on recombinant human MMP-2, 5.05; in assay [2] it was 7.21; in assay [3] it was 6.18; in assay [4] it was approximately 4.30. In addition, the negative-log Ki (pKi) in assay [2] is 7.22. On MMP-1, the MMP-1 entry is recorded as “no inh”.

On to `O=C(O)CC[C@H](NC(=O)c1ccc(-c2ccccc2)cc1)C(=O)NCCc1ccccc1Cl` [Example 8VV, N^2-(biphenyl-4-ylcarbonyl)-N^1-[2-(2-chlorophenyl)ethyl]-L-α-glutamine], for which the pIC50 is less than 4.18 in assay [1]; 5.04 at recombinant human MMP-2; 7.00 in assay [2]; 5.72 in assay [3]; approximately 4.30 in assay [4]. Besides, the MMP-1 result at MMP-1 is “no inh”.

For `CCCCCCNC(=O)[C@H](CCC(=O)O)NC(=O)c1ccc(-c2ccccc2)cc1` [Example 8VVV, N^2-(biphenyl-4-ylcarbonyl)-N^1-hexyl-L-α-glutamine], the pIC50 is less than 4.18 in assay [1]; 5.25 on recombinant human MMP-2; 7.52 in assay [2]; 6.38 in assay [3]; approximately 4.30 in assay [4]. Besides, in assay [2], the pKi was 7.42. At MMP-1, the MMP-1 entry was “no inh”.

Turning to `O=C(O)CC[C@H](NC(=O)c1ccc(-c2ccccc2)cc1)C(=O)NCc1ccc(Oc2ccccc2)cc1` [Example 8W, N^2-(1,1′-biphenyl-4-ylcarbonyl)-N^1-(4-phenoxybenzyl)-L-α-glutamine], the pIC50 in assay [1] is approximately 4.60; at recombinant human MMP-2 it was approximately 5.60; in assay [2], 7.12; in assay [3], 6.01; in assay [4], approximately 4.66. Moreover, the MMP-1 entry at MMP-1 is recorded as “no inh”.

In the case of `O=C(O)CC[C@H](NC(=O)c1ccc(-c2ccccc2)cc1)C(=O)NCCc1cccs1` [Example 8WW, N^2-(biphenyl-4-ylcarbonyl)-N^1-[2-(2-thienyl)ethyl]-L-α-glutamine], the pIC50 in assay [1] was less than 4.18; at recombinant human MMP-2, 4.88; in assay [2], 7.15; in assay [3], 6.46; in assay [4], approximately 4.30. Also, the MMP-1 result on MMP-1 is reported as “no inh”.

As for `O=C(O)CC[C@H](NC(=O)c1ccc(-c2ccccc2)cc1)C(=O)NCCCCCO` [Example 8WWW, N^2-(biphenyl-4-ylcarbonyl)-N^1-(5-hydroxypentyl)-L-α-glutamine], the pIC50 was less than 3.70 in assay [1]; 5.13 at recombinant human MMP-2; 7.44 in assay [2]; 6.08 in assay [3]; approximately 3.70 in assay [4]. The MMP-1 result on MMP-1 is recorded as “no inh”.

Regarding `COc1cccc(CCNC(=O)[C@H](CCC(=O)O)NC(=O)c2ccc(-c3ccccc3)cc2)c1` [Example 8X, N^2-(1,1′-biphenyl-4-ylcarbonyl)-N^1-[2-(3-methoxyphenyl)ethyl]-L-α-glutamine], the pIC50 in assay [1] is approximately 4.60; at recombinant human MMP-2, 5.15; in assay [2], 7.00; in assay [3] it was 5.96; in assay [4], approximately 4.17. Moreover, the MMP-1 entry at MMP-1 was “no inh”.

Regarding `O=C(O)CC[C@H](NC(=O)c1ccc(-c2ccccc2)cc1)C(=O)NCCCCCCO` [Example 8XXX, N^2-(biphenyl-4-ylcarbonyl)-N^1-(6-hydroxyhexyl)-L-α-glutamine], the pIC50 in assay [1] was less than 3.70; at recombinant human MMP-2 it was 5.10; in assay [2], 7.52; in assay [3], 6.03; in assay [4], approximately 4.30. Also, the MMP-1 entry at MMP-1 was “no inh”.

On to `COc1ccc(CNC(=O)[C@H](CCC(=O)O)NC(=O)c2ccc(-c3ccccc3)cc2)c(OC)c1` [Example 8Y, N^2-(1,1′-biphenyl-4-ylcarbonyl)-N^1-(2,4-dimethoxybenzyl)-L-α-glutamine], for which the pIC50 was approximately 4.60 in assay [1]; 5.26 at recombinant human MMP-2; 7.30 in assay [2]; 6.28 in assay [3]; approximately 4.17 in assay [4]. Also, the MMP-1 entry on MMP-1 is given as “no inh”.

Regarding `CCCNC(=O)[C@H](CCC(=O)O)NC(=O)c1ccc(-c2ccccc2)cc1` [Example 8YYY, N^2-(biphenyl-4-ylcarbonyl)-N^1-propyl-L-α-glutamine], the pIC50 in assay [1] was less than 3.70; on recombinant human MMP-2, 5.03; in assay [2], 7.00; in assay [3], 5.80; in assay [4] it was less than 4.30. The MMP-1 result at MMP-1 is given as “no inh”.

Consider `COc1ccccc1CNC(=O)[C@H](CCC(=O)O)NC(=O)c1ccc(-c2ccccc2)cc1` [Example 8Z, N^2-(1,1′-biphenyl-4-ylcarbonyl)-N^1-(2-methoxybenzyl)-L-α-glutamine], for which the pIC50 in assay [1] was approximately 4.60; on recombinant human MMP-2, 5.42; in assay [2], 7.10; in assay [3], 6.17; in assay [4], approximately 4.17. For the same molecule, at MMP-1, the MMP-1 entry is on record as “no inh”.

For `COc1cc(CNC(=O)[C@H](CCC(=O)NO)NC(=O)c2ccc(-c3ccccc3)cc2)cc(OC)c1OC` [Example 33A, N^2-(1,1′-biphenyl-4-ylcarbonyl)-N^5-hydroxy-N^1-(3,4,5-trimethoxybenzyl)-L-α-glutamamide], the pIC50 in assay [1] is 6.95; on recombinant human MMP-2 (read-out: MMP-2, Table 1, unit inferred), 8.33; in assay [2] it was more than 8.00; on MMP-1 it was 5.76; in assay [3] it was 8.59; in assay [4], 7.49.

For the molecule `O=C(CC[C@H](NC(=O)c1ccc(-c2ccccc2)cc1)C(=O)NCc1cccc(OC(F)(F)F)c1)NO` [Example 33D, N^2-(1,1′-biphenyl-4-ylcarbonyl)-N^5-hydroxy-N^1-[3-(trifluoromethoxy)benzyl]-L-α-glutamamide], the pIC50 in assay [1] is 7.13; on recombinant human MMP-2, 8.48; in assay [2], more than 8.00; against MMP-1, approximately 5.81; in assay [3], 7.87; in assay [4], 7.28.

For orientation: pKi means −log10 of the Ki, conventionally taken in molar units.

The record behind these values is patent US7998965B2, “Glutamate aggrecanase inhibitors” (Wyeth LLC, priority 2005, dated 2011).
